In patent US10035791B2, “Bicyclic compound and pharmaceutical composition thereof for treating stroke and use thereof” (China Medical University, priority 2016, dated 2018):

Legend:
[1] = system: primary cortical cultures (PCCs); assay: Lactate dehydrogenase (LDH) release rate analysis, H2O2-treated PCCs; type: cell-based, C57BL/6 mice; conditions: for LDH release rate of the PCCs treated with H2O2: compound 100 μM, 10^-4 mol/L H2O2, 24 hours, FIG. 1F; for concentration at which the LDH release rate of the PCCs is reduced most: tested 0.1, 1, 10 and 100 μM, FIG. 1G
Protocol: H2O2 can cause an oxidative damage to cells and a destruction of the cell membrane, and consequently the LDH is released into medium. For that reason, the lower rate of the LDH released into the culture medium is represented the fewer damaged cells and better cell protection effect of sample.
Test cells are primary cortical cultures (PCCs) in this example. The PCCs are prepared from cerebral cortexes of gestation day 17 embryos from C57BL/6 mice as described previously (Cell Death Differ 2008; 15: 143-151). The PCCs are maintained under serum-free conditions in neurobasal medium (Invitrogen), supplemented with B-27 supplement (2%; invitrogen), glutamine (0.5 mM; Sigma Aldrich), glutamate ([…]; Sigma Aldrich), penicillin (100 U/ml) and streptomycin ([…]; Invitrogen). At 4 days in vitro, half of the medium is removed and replaced with fresh medium without glutamate. The cultures are maintained in a humidified incubator at 37° C. with 5% CO2. At 7 days in vitro, the PCCs are used for experimentation.
The PCCs are seeded in a 24-well plate and are allowed to stand for 20 minutes. […] The PCCs are maintained at 37° C. in a humidified atmosphere of 5% CO2 for 24 hours. After incubation, the culture medium is collected and washed twice with phosphate buffered saline (PBS), and then are analyzed the LDH activity in the culture medium by using LDH Cytotoxicity Detection Kit (TaKaRa Bio Laboratories, Japan) to calculate the percentage cytotoxicity, which is represented the situation of cells damage, of the PCCs. The lower percentage cytotoxicity presents the lower LDH activity detected and less severe of cells damages, which indicates the better cell protection effect of the sample. The LDH activity is measured by a colorimetry. After a reaction between enzyme and particular substrate, an absorbance of the reaction solution and the LDH activity is linearly correlated. The LDH activity (U/10^−3 L) is calculated by a reduced optical density slope at a wavelength of 340 nm within three minutes. A lactate dehydrogenase activity unit is defined as a catalytic consumption of […] NADH per minute.

[2] = system: ischemic rats; assay: Volume of the infarction after cerebral ischemia, magnetic resonance imaging (MRI); type: in vivo, Sprague-Dawley (SD) rats; conditions: 30 mg/kg, 7 days after the injection, FIGS. 18A, 18B
From the text: The ischemic rats are induced by an ischemia-reperfusion model to simulate transient focal cerebral ischemia in rats. Test animals are male Sprague-Dawley (SD) rats weighing 250-300 g. The rats are anesthetized with chloral hydrate (0.4 g/kg IP) and subjected to cerebral ischemia. The ischemia-reperfusion model is induced by ligations of bilateral common carotid arteries (CCAs) and a right middle cerebral artery (MCA). The bilateral CCAs are clamped with non-traumatic arterial clips, and the right MCA is ligated with an 10-0 nylon suture. After 90 minutes ischemia, the suture on the MCA and the arterial clips on CCAs are removed to allow reperfusion. Core body temperature is monitored with a thermistor probe (Hewlett-Packard Model 21090A probe, Hewlett-Packard Company, Andover, Mass.), and maintained at 37° C. with a heating pad during anesthesia. After recovery from anesthesia, rat body temperature is maintained at 37° C. with a heat lamp.
Further, the ischemic rats are assigned into 5 groups, 4 test groups and 1 control group. The ischemic rats of the test groups are injected with 1 mg/kg of the Compound 1, 30 mg/kg of the genipin, 1 mg/kg of the Compound 1 and 100 mg/kg of 2-ME2, and 1 mg/kg of the Compound 1 and the LV-Bmi-1-sh, respectively. The ischemic rats of the control group are injected with the vehicle. At 7 days after the injection, the ischemic rats of the different groups are anesthetized, and the volume of the infarction thereof is assessed by a magnetic resonance imaging (MRI).

LDH release rate of the PCCs treated with H2O2 [1]	SMILES	concentration at which the LDH release rate of the PCCs is reduced most [1] [µM]	area of the largest infarction (MRI) [2]	volume of the infarction (MRI) [2]
lower LDH release rate	COC(=O)C1=CO[C@@H](O)[C@@H]2C(COC(=O)[C@H](Cc3ccccc3)NC(=O)OC(C)(C)C)=CC[C@H]12 [Compound 3]	100	–	–
lower LDH release rate	COC(=O)C1=CO[C@@H](OC(=O)[C@@H](N)Cc2ccccc2)[C@@H]2C(COC(=O)[C@@H](N)Cc3ccccc3)=CC[C@H]12 [Compound 15]	100	–	–
–	COC(=O)C1=CO[C@@H](OC(=O)[C@@H](N)Cc2ccccc2)[C@@H]2C(CO)=CC[C@H]12 [Compound 16]	100	–	–
–	COC(=O)C1=CO[C@@H](O)[C@@H]2C(CO)=CC[C@H]12 [genipin, reference compound]	–	reduced	reduced
